Publication PMC12301332, “Biased antagonism of a series of bicyclic CXCR2 intracellular allosteric modulators” (Frontiers in Pharmacology, 2025)

Columns and labels:
CXCR2 [1] = biological target: T1, CXCR2 (Homo sapiens, UniProt P25025); experiment: NanoBRET-based G protein activation inhibition assay (REGA-SIGN Gαi1 dissociation) in HEK293A.CXCR2 cells; type: cell-based; conditions: n = 3; for IC50: mean; for Imax Gαi1 (maximum observed inhibitory effect): normalized to Imax of navarixin = 100%
T1 construct: expressed in transfected cells
T1 sequence (P25025 1-360): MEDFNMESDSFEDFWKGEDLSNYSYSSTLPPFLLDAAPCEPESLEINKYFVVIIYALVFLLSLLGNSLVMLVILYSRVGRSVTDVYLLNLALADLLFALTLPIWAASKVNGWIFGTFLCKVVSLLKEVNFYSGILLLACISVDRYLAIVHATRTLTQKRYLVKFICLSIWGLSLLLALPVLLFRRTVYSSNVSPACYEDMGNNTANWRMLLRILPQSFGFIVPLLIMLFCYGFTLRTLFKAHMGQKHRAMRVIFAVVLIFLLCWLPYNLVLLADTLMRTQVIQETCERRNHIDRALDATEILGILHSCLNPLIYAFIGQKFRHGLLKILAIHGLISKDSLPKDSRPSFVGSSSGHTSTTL
Method: Cells were trypsinized and resuspended at 3 × 10^5 cell/mL in the growth medium, whereafter they were incubated for 2 hours at RT. Cells were transfected in suspension using FuGENE® HD Transfection Reagent at a 3:1 reagent to DNA ratio in Opti-MEMTM I Reduced-Serum Medium, with the final DNA concentration of 1 μg/μL. The transfection mixture was incubated for 10 min at RT before adding it to the cell suspension. Transfected cells were seeded at 3.0 × 10^4 cells/well in a white, clear, flat-bottom 96-well plate coated with 100 μg/mL poly-D-lysin ([…], Sigma Aldrich) and incubated for 48 h at 37°C and 5% CO2. […] (2023)]. Following the 48-h incubation period, cells were washed with the assay buffer. Compounds were serially diluted in 1:500 Nano-Glo® Vivazine^TM working solution (#N2581, Promega), and 90 μL of compound/Vivazine mix was added, followed by incubation for 45 min at 37°C and 5% CO2. Plates were transferred to the FLIPR Penta system (Molecular Devices) at 37°C, and all steps onward are automated and performed by the FLIPR Penta system. After a 10-min equilibration period, the baseline BRET signal was determined by five consecutive reads followed by automatic administration of 10 μL of 10× ligand (Table 1) to the cell plate. Changes in the BRET signal was measured for 10 min, with each read spaced by 2.5 s. […] BRET ratios were extracted from ScreenWorks software (Molecular Devices) and represent the ratio between the acceptor emission of […]2 or mNG (G protein or β-arrestin recruitment, respectively) and NLuc donor emission. The basal BRET ratio was defined as the average BRET ratio of the five consecutive readings preceding ligand addition. Changes in BRET values post ligand administration (ΔBRET) were calculated for each well as a percentage difference to the previously defined basal BRET ratio. Average ΔBRET values were baseline corrected by subtracting the average negative control BRET ratio (unstimulated condition). […] AUCs were normalized to the positive control (stimulated condition); whereafter, dose-response curves were fitted to log (inhibitor) vs response (three parameters) in GraphPad 10.2.0 (GraphPad Software). […] Calculation 1: calculation of the BRET signal. • 1. […] NC correctedΔBRET=Δ[…]. • 4. a. Neg AUC of NC correctedΔBRET=Gα activation read out. b. Pos AUC of NC correctedΔBRET=β-arrestin recruitment.

CXCR2 [2] = biological target: T1, CXCR2; experiment: NanoBRET β-arrestin1 recruitment inhibition assay (NanoLux) in HEK293A cells; type: cell-based; conditions: for Imax βarr1 (maximum observed inhibitory effect): normalized to Imax of navarixin = 100%
Method: Cells were trypsinized and resuspended at 3 × 10^5 cell/mL in the growth medium, whereafter they were incubated for 2 hours at RT. Cells were transfected in suspension using FuGENE® HD Transfection Reagent at a 3:1 reagent to DNA ratio in Opti-MEMTM I Reduced-Serum Medium, with the final DNA concentration of 1 μg/μL. The transfection mixture was incubated for 10 min at RT before adding it to the cell suspension. Transfected cells were seeded at 3.0 × 10^4 cells/well in a white, clear, flat-bottom 96-well plate coated with 100 μg/mL poly-D-lysin ([…], Sigma Aldrich) and incubated for 48 h at 37°C and 5% CO2. HEK293A cells were transiently co-transfected with plasmids encoding β-arrestin1 protein tagged with NLuc (donor) and CXCR2 protein tagged with mNeonGreen (mNG) acceptor in a 1:10 donor to acceptor ratio, as described previously ([Luís et al., 2022]). All subsequent steps are identical to those in “NanoBRET-based G protein activation inhibition assay,” which are described above. Measurements were acquired using a 440- to 480-nm donor emission filter (#0200-6179, Molecular Devices) and a 515- to 575-nm acceptor emission filter (#0200-6203, Molecular Devices) BRET ratios were extracted from ScreenWorks software (Molecular Devices) and represent the ratio between the acceptor emission of […]2 or mNG (G protein or β-arrestin recruitment, respectively) and NLuc donor emission. The basal BRET ratio was defined as the average BRET ratio of the five consecutive readings preceding ligand addition. Changes in BRET values post ligand administration (ΔBRET) were calculated for each well as a percentage difference to the previously defined basal BRET ratio. Average ΔBRET values were baseline corrected by subtracting the average negative control BRET ratio (unstimulated condition). […] AUCs were normalized to the positive control (stimulated condition); whereafter, dose-response curves were fitted to log (inhibitor) vs response (three parameters) in GraphPad 10.2.0 (GraphPad Software). […] Calculation 1: calculation of the BRET signal. • 1. […] NC correctedΔBRET=Δ[…]. • 4. a. Neg AUC of NC correctedΔBRET=Gα activation read out. b. Pos AUC of NC correctedΔBRET=β-arrestin recruitment.

[3] = CXCL1 at EC80, mean, n = 3, read-out: IC50 βarr1
[4] = CXCL2 at EC80, mean, n = 3, read-out: IC50 βarr1
[5] = CXCL3 at EC80, mean, n = 3, read-out: IC50 βarr1
[6] = CXCL5 at EC80, mean, n = 3, read-out: IC50 βarr1
[7] = CXCL6 at EC80, mean, n = 3, read-out: IC50 βarr1
[8] = CXCL7 at EC80, mean, n = 3, read-out: IC50 βarr1
[9] = CXCL8 at EC80, mean, n = 3, read-out: IC50 βarr1

SMILES | IC50 (CXCR2 [1]; CXCL1 at EC80) [nM] | IC50 (CXCR2 [1]; CXCL2 at EC80) [nM] | Imax Gαi1 (maximum observed inhibitory effect) (CXCR2 [1]; CXCL2 at EC80) [%] | IC50 (CXCR2 [1]; CXCL3 at EC80) [nM] | IC50 (CXCR2 [1]; CXCL5 at EC80) [nM] | Imax Gαi1 (maximum observed inhibitory effect) (CXCR2 [1]; CXCL5 at EC80) [%] | IC50 (CXCR2 [1]; CXCL6 at EC80) [nM] | IC50 (CXCR2 [1]; CXCL7 at EC80) [nM] | IC50 (CXCR2 [1]; CXCL8 at EC80) [nM] | IC50 (CXCR2 [2]; [3]) [nM] | Imax βarr1 (maximum observed inhibitory effect) (CXCR2 [2]; CXCL1 at EC80, n = 3) [%] | IC50 (CXCR2 [2]; [4]) [nM] | Imax βarr1 (maximum observed inhibitory effect) (CXCR2 [2]; CXCL2 at EC80, n = 3) [%] | IC50 (CXCR2 [2]; [5]) [nM] | Imax βarr1 (maximum observed inhibitory effect) (CXCR2 [2]; CXCL3 at EC80, n = 3) [%] | IC50 (CXCR2 [2]; [6]) [nM] | Imax βarr1 (maximum observed inhibitory effect) (CXCR2 [2]; CXCL5 at EC80, n = 3) [%] | IC50 (CXCR2 [2]; [7]) [nM] | Imax βarr1 (maximum observed inhibitory effect) (CXCR2 [2]; CXCL6 at EC80, n = 3) [%] | IC50 (CXCR2 [2]; [8]) [nM] | also measured
CC(CO)Nc1nc(SCc2cccc(F)c2F)nc2cnccc12 (centres unmarked) [MVH-3] | > 15000 | 6240 ± 1150 | 100 | > 15000 | 10200 ± 6520 | 93.7 ± 5.53 | 7530 ± 1740 | 10900 ± 9580 | > 15000 | 980 ± 180 | 100 | 580 ± 170 | 100 | 1590 ± 430 | 100 | 840 ± 160 | 100 | 700 ± 170 | 100 | 160 ± 50 | Imax βarr1 (maximum observed inhibitory effect) (CXCR2 [2]; CXCL7 at EC80, n = 3): 95.75 ± 3.49%; IC50 (CXCR2 [2]; [9]): 1340 ± 450 nM; Imax βarr1 (maximum observed inhibitory effect) (CXCR2 [2]; CXCL8 at EC80, n = 3): 90.8 ± 4.62%
CC(CCO)Nc1nc(SCc2cccc(F)c2F)nc2[nH]nnc12 (centres unmarked) [MVH-33] | > 15000 | > 15000 | <50 | > 15000 | 13100 ± 4760 | 100 | > 15000 | 10100 ± 4800 | > 15000 | 1460 ± 580 | 98.15 ± 4.28 | 660 ± 210 | 92.98 ± 2.58 | 1530 ± 260 | 96.91 ± 2.10 | 1120 ± 260 | 100 | 790 ± 370 | 93.68 ± 7.03 | 340 ± 130 | Imax Gαi1 (maximum observed inhibitory effect) (CXCR2 [1]; CXCL1 at EC80): <50%; Imax Gαi1 (maximum observed inhibitory effect) (CXCR2 [1]; CXCL3 at EC80): <50%; Imax Gαi1 (maximum observed inhibitory effect) (CXCR2 [1]; CXCL6 at EC80): <50%; Imax Gαi1 (maximum observed inhibitory effect) (CXCR2 [1]; CXCL7 at EC80): 98.43 ± 2.62%; Imax Gαi1 (maximum observed inhibitory effect) (CXCR2 [1]; CXCL8 at EC80): <50%; Imax βarr1 (maximum observed inhibitory effect) (CXCR2 [2]; CXCL7 at EC80, n = 3): 100%; IC50 (CXCR2 [2]; [9]): 1510 ± 1010 nM; Imax βarr1 (maximum observed inhibitory effect) (CXCR2 [2]; CXCL8 at EC80, n = 3): 100%
CC(CO)Nc1nc(SCc2cccc(F)c2F)nc2oncc12 (centres unmarked) [MVH-24] | 2080 ± 420 | 1210 ± 630 | 100 | 14800 ± 10100 | 1430 ± 710 | 98.52 ± 2.04 | 1060 ± 750 | 750 ± 260 | 2490 ± 1240 | 170 ± 60 | 100 | 80 ± 40 | 100 | 140 ± 50 | 99.42 ± 0.85 | 90 ± 30 | 100 | 70 ± 20 | 100 | 30 ± 10 | Imax Gαi1 (maximum observed inhibitory effect) (CXCR2 [1]; CXCL1 at EC80): 96.47 ± 3.69%; Imax Gαi1 (maximum observed inhibitory effect) (CXCR2 [1]; CXCL3 at EC80): 100%; Imax Gαi1 (maximum observed inhibitory effect) (CXCR2 [1]; CXCL6 at EC80): 100%; Imax Gαi1 (maximum observed inhibitory effect) (CXCR2 [1]; CXCL7 at EC80): 94.94 ± 3.57%; Imax Gαi1 (maximum observed inhibitory effect) (CXCR2 [1]; CXCL8 at EC80): 100%; Imax βarr1 (maximum observed inhibitory effect) (CXCR2 [2]; CXCL7 at EC80, n = 3): 100%; IC50 (CXCR2 [2]; [9]): 150 ± 40 nM; Imax βarr1 (maximum observed inhibitory effect) (CXCR2 [2]; CXCL8 at EC80, n = 3): 100%; IC50 (CXCR2 [2]; range across ELR+ chemokines, read-out: IC50 β-arrestin1 recruitment inhibition): 30 to 170 nM
